Experimental data published in PMC6943732, “The Disulfide Stress Response and Protein S-thioallylation Caused by Allicin and Diallyl Polysulfanes in Bacillus subtilis as Revealed by Transcriptomics and Proteomics” (Antioxidants, 2019).

Assays:
Assay type in all cases: cell-based
GuaB = target: T1, GuaB (Bacillus subtilis, UniProt P21879); experiment: shotgun Orbitrap LC-MS/MS of S-thioallylated Cys peptides (+[…] Da); details: covalent, active site Cys308
T1 construct: native, in treated cells, shotgun proteomics of tryptic peptides

SerA = target: T2, SerA (Bacillus subtilis, UniProt P35136); experiment: as above; details: covalent, redox-sensitive Cys
T2 construct: native, in treated cells, shotgun proteomics of tryptic peptides
T2 sequence (P35136 1-525): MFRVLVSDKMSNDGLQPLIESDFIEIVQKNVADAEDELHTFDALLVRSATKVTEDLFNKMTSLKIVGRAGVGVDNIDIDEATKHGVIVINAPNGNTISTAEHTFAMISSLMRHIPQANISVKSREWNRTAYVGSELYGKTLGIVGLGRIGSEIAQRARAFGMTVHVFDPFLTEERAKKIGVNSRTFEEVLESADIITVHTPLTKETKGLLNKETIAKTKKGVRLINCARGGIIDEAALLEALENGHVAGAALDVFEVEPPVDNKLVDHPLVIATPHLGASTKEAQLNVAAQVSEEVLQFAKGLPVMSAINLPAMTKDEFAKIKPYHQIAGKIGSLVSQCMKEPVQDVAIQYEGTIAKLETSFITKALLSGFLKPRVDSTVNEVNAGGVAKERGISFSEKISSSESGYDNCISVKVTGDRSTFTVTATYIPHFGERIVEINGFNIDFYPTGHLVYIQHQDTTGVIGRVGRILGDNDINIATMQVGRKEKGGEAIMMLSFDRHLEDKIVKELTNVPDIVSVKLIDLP

YxjG = target: T3, YxjG (Bacillus subtilis, UniProt P42318); experiment: as above; details: covalent, redox-sensitive Cys
T3 construct: native, in treated cells, shotgun proteomics of tryptic peptides
T3 sequence (P42318 1-378): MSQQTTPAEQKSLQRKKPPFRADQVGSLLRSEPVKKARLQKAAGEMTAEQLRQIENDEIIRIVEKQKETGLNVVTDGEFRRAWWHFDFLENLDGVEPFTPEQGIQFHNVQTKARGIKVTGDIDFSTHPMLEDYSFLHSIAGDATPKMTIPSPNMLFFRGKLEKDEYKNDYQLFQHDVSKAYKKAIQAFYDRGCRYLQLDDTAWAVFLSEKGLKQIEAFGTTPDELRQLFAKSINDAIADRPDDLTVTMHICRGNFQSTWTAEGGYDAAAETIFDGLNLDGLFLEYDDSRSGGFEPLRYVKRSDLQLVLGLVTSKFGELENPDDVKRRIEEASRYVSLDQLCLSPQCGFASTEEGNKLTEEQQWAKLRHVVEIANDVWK

GlnA = target: T4, GlnA (Bacillus subtilis, UniProt P12425); experiment: as above; details: covalent
T4 construct: native, in treated cells, shotgun proteomics of tryptic peptides
T4 sequence (P12425 2-444): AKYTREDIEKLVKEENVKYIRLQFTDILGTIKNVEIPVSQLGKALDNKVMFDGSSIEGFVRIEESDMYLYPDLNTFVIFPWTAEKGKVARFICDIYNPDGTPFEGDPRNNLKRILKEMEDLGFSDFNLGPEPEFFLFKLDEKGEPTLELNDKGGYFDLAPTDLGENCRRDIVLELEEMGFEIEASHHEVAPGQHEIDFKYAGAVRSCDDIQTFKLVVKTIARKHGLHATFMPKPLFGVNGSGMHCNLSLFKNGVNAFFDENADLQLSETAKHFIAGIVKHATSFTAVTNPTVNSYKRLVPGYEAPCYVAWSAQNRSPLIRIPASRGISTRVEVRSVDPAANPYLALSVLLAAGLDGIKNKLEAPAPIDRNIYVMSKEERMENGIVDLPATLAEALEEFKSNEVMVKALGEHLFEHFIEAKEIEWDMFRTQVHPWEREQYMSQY

FusA (EF-G) = target: T5, FusA (EF-G) (Bacillus subtilis, UniProt P80868); experiment: as above; details: covalent, Cys239
T5 construct: native, in treated cells, shotgun proteomics of tryptic peptides

TufA (EF-Tu) = target: T6, TufA (EF-Tu) (Bacillus subtilis, UniProt P33166); experiment: as above; details: covalent, Cys83
T6 construct: gene tuf; native, in treated cells, shotgun proteomics of tryptic peptides

MetE = target: T7, MetE (Bacillus subtilis, UniProt P80877); experiment: as above; details: covalent, Cys719/Cys730
T7 construct: native, in treated cells, shotgun proteomics of tryptic peptides

PpaC = target: T8, PpaC (Bacillus subtilis, UniProt P37487); experiment: as above; details: covalent, active site Cys158
T8 construct: native, in treated cells, shotgun proteomics of tryptic peptides

HypR = target: T9, HypR (Bacillus subtilis, UniProt P37486); experiment: IP and Orbitrap LC-MS/MS of S-thioallylated Cys peptides (+[…] Da); details: covalent; allicin-treated cells; Cys14
T9 construct: gene yybR; native, immunoprecipitated with polyclonal antibody from allicin-treated cells

CatR = target: T10, CatR (Bacillus subtilis, UniProt O32238); experiment: as above; details: covalent; allicin-treated cells; Cys7
T10 construct: gene yvaP; native, immunoprecipitated with polyclonal antibody from allicin-treated cells
T10 sequence (O32238 1-108): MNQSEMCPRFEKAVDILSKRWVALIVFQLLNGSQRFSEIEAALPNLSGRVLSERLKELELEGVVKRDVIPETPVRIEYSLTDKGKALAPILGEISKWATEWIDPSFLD

YodB = target: T11, YodB (Bacillus subtilis, UniProt O34844); experiment: as above; details: covalent; allicin-treated cells; Cys101 (Cys6 peptide not identified)
T11 construct: native, immunoprecipitated with polyclonal antibody from allicin-treated cells

OhrR-FLAG = target: T12, OhrR-FLAG (Bacillus subtilis, UniProt O34777); experiment: as above; details: covalent; cells treated with 90 µM allicin, 30 min; Cys15 (b28 names the redox-sensing residue Cys22)
T12 construct: FLAG-tagged, expressed in B. subtilis, immunoprecipitated from allicin-treated cells
T12 sequence (O34777 1-147): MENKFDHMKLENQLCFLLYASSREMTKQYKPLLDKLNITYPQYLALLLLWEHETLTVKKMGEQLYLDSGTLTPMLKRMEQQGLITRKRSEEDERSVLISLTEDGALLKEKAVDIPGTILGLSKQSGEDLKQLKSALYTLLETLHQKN

[1] = cells treated with 92 µM DAS4, 30 min
[2] = cells treated with 90 µM allicin, 30 min

T8 sequence (P37487 whole entry): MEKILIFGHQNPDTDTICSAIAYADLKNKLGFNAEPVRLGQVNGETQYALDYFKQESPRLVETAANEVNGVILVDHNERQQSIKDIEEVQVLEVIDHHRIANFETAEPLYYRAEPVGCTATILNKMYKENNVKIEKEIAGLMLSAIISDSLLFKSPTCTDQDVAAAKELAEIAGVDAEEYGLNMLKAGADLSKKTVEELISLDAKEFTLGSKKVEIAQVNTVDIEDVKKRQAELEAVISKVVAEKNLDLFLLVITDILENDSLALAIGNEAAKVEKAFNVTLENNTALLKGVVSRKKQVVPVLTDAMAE
T5 sequence (P80868 2-692): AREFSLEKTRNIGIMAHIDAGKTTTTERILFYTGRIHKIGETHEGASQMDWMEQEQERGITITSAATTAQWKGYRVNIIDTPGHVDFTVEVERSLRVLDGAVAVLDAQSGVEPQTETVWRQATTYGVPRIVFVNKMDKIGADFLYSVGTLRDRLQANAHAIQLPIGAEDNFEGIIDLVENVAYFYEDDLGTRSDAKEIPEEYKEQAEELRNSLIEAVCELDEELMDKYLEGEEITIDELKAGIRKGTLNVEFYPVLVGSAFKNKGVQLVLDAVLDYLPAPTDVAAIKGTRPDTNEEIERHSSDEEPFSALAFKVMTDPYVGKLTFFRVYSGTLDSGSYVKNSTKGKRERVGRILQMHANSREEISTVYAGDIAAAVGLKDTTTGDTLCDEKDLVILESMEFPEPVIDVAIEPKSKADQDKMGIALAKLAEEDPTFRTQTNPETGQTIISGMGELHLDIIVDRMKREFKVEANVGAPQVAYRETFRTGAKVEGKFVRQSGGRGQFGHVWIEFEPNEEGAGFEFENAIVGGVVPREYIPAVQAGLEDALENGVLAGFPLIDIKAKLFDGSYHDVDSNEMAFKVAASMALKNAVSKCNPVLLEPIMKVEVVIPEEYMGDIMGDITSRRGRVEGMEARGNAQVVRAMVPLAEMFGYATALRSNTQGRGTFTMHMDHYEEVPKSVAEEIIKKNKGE
T7 sequence (P80877 2-762): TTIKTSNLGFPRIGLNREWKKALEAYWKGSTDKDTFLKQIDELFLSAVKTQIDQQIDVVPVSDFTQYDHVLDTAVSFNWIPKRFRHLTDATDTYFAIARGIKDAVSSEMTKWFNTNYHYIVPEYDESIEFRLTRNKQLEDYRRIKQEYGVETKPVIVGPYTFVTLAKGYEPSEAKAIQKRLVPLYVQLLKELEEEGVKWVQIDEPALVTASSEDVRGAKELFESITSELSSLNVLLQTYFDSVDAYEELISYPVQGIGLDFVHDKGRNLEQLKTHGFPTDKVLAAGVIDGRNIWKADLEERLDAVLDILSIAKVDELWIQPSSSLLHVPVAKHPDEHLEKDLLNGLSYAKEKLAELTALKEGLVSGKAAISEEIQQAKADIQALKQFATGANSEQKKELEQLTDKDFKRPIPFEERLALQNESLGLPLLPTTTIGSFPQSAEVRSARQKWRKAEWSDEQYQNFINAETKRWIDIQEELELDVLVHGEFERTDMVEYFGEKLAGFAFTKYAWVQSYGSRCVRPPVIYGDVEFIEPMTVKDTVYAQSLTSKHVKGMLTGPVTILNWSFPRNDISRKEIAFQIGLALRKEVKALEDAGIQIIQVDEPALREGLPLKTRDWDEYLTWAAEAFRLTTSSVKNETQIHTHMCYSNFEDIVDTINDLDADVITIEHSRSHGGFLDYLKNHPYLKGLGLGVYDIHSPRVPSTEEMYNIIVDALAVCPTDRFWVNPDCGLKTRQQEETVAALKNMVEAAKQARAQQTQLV
T1 sequence (P21879 whole entry): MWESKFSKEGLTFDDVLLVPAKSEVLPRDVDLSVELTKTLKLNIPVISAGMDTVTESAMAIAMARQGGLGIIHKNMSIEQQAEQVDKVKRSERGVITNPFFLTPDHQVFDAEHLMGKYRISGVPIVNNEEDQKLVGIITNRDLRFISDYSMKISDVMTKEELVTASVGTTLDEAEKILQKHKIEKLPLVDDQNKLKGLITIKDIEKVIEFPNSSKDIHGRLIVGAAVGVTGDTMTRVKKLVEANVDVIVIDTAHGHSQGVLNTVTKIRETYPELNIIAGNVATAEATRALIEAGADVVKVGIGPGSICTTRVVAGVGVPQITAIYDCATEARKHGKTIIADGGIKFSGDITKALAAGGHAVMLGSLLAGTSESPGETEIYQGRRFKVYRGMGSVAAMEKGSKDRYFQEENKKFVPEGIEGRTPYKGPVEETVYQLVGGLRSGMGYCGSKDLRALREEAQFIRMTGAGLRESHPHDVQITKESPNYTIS
T6 sequence (P33166 2-396): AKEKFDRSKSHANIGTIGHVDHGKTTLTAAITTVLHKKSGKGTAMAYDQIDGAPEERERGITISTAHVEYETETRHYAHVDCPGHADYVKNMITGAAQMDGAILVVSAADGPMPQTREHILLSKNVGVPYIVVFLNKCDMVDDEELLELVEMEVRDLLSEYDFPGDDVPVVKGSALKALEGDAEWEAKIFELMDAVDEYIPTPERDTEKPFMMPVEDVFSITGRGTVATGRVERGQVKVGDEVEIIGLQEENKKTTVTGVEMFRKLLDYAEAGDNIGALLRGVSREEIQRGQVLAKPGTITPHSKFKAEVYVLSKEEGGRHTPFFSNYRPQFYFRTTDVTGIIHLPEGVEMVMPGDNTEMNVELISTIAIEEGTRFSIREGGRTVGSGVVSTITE
T9 sequence (P37486 whole entry): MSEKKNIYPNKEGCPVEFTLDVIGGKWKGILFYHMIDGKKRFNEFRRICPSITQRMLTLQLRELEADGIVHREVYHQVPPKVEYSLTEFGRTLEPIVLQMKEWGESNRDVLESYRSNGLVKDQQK
T11 sequence (O34844 whole entry): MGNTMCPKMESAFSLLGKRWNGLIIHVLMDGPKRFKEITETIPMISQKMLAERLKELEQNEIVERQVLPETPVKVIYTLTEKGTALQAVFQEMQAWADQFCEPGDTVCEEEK

Compound	shotgun Orbitrap LC-MS/MS of S-thioallylated Cys peptides (+72 Da) (GuaB; [1])	shotgun Orbitrap LC-MS/MS of S-thioallylated Cys peptides (+72 Da) (SerA; [1])	shotgun Orbitrap LC-MS/MS of S-thioallylated Cys peptides (+72 Da) (YxjG; [1])	shotgun Orbitrap LC-MS/MS of S-thioallylated Cys peptides (+72 Da) (GlnA; [1])	shotgun Orbitrap LC-MS/MS of S-thioallylated Cys peptides (+72 Da) (FusA (EF-G); [1])	shotgun Orbitrap LC-MS/MS of S-thioallylated Cys peptides (+72 Da) (TufA (EF-Tu); [1])	shotgun Orbitrap LC-MS/MS of S-thioallylated Cys peptides (+72 Da) (MetE; [1])	shotgun Orbitrap LC-MS/MS of S-thioallylated Cys peptides (+72 Da) (PpaC; [1])	IP and Orbitrap LC-MS/MS of S-thioallylated Cys peptides (+72 Da) (HypR)	shotgun Orbitrap LC-MS/MS of S-thioallylated Cys peptides (+72 Da) (GuaB; [2])	shotgun Orbitrap LC-MS/MS of S-thioallylated Cys peptides (+72 Da) (SerA; [2])	IP and Orbitrap LC-MS/MS of S-thioallylated Cys peptides (+72 Da) (CatR)	shotgun Orbitrap LC-MS/MS of S-thioallylated Cys peptides (+72 Da) (YxjG; [2])	shotgun Orbitrap LC-MS/MS of S-thioallylated Cys peptides (+72 Da) (GlnA; cells treated with 90 µM allicin, 30 min, conserved Cys)	IP and Orbitrap LC-MS/MS of S-thioallylated Cys peptides (+72 Da) (YodB)	shotgun Orbitrap LC-MS/MS of S-thioallylated Cys peptides (+72 Da) (FusA (EF-G); [2])	shotgun Orbitrap LC-MS/MS of S-thioallylated Cys peptides (+72 Da) (TufA (EF-Tu); [2])	IP and Orbitrap LC-MS/MS of S-thioallylated Cys peptides (+72 Da) (OhrR-FLAG)	shotgun Orbitrap LC-MS/MS of S-thioallylated Cys peptides (+72 Da) (MetE; [2])	shotgun Orbitrap LC-MS/MS of S-thioallylated Cys peptides (+72 Da) (PpaC; [2])
C=CCSSSSCC=C [DAS4]	GuaB and PpaC were S-thioallylated at their conserved redox-sensing active sites Cys308 and Cys158	SerA, and PpaC were modified at their redox-sensitive Cys residues by allicin and DAS4	TufA, MetE, YxjG, GuaB, SerA, and PpaC were modified at their redox-sensitive Cys residues	MetE, YxjG, MetI, AroA, ArgJ, CarB, GlnA	Cys83 of TufA, Cys239 of FusA	modified at their conserved Cys residues, e.g., Cys83 of TufA	Cys239 of FusA, and Cys719/Cys730 of MetE	pyrophosphatase PpaC were S-thioallylated by allicin and DAS4 in B. subtilis	–	–	–	–	–	–	–	–	–	–	–	–
C=CCS[S+]([O-])CC=C (centres unmarked) [allicin]	–	–	–	–	–	–	–	–	modified by S-thioallylation for OhrR (Cys15), HypR (Cys14), and CatR (Cys7)	GuaB and PpaC were S-thioallylated at their conserved redox-sensing active sites Cys308 and Cys158	SerA, and PpaC were modified at their redox-sensitive Cys residues by allicin and DAS4	modified by S-thioallylation for OhrR (Cys15), HypR (Cys14), and CatR (Cys7)	TufA, MetE, YxjG, GuaB, SerA, and PpaC were modified at their redox-sensitive Cys residues	MetE, YxjG, MetI, AroA, ArgJ, CarB, GlnA	For the YodB-repressor, only Cys101 was S-thioallylated	Cys83 of TufA, Cys239 of FusA	modified at their conserved Cys residues, e.g., Cys83 of TufA	modified by S-thioallylation for OhrR (Cys15), HypR (Cys14), and CatR (Cys7)	Cys239 of FusA, and Cys719/Cys730 of MetE	pyrophosphatase PpaC were S-thioallylated by allicin and DAS4 in B. subtilis
